Experimental data taken from patent US6897348B2, “Bandage, methods of producing and using same” (Kimberly Clark Worldwide, Inc, priority 2001, dated 2005).

Key:
[1] = test system: full thickness (excisional) wounds on dorsal skin; experiment: Accelerated wound healing study, full thickness acute wound model (re-epithelialization, epithelial thickness); assay type: in vivo; settings: rat full thickness wound
Experimental: Following the assessment of hemostatic agents, a study was conducted using the accelerated wound healing study protocol which follows. In the examples of the study, a series of comparative control bandage substrates were evaluated as to the speed at which wounds covered/dressed with such bandages healed. In particular, the rates of re-epithelialization were measured for wounds dressed by such control dressing materials. Additionally, the rates at which wounds heal that have been treated with a series of test compounds in accordance with the present invention, were also measured and compared with the controls.
For the purposes of the examples, the test compounds consisted of chitosan, Niacinamide ascorbate (hereinafter NA) prepared by the method which follows; and chitosan niacinamide ascorbate salt (hereinafter CNA, prepared by the method which follows), 2-ply surgical gauze, and Comfeel® Plus Clear Dressing (Colorplast).
Wounds were treated with test and control articles on the day of wounding (day 0) on 2, 4, 6, 8, 10, 12, and 14 days after the injury. CNA (freeze dried) was cut to the approximate size of the wound and applied over the wound. Chitosan (powder) and NA (powder) were applied over the wound to the depth that covered the underlying tissue. The gauze was cut to extend approximately 0.5 cm beyond the margins of the wound. The Comfeel® Plus dressing was cut to the approximate size of the wound and applied over the wound and also used to cover all test and control articles over the entire dorsal surface of the animal. […]
For the study, twenty four albino rats (12M/12F), each weighing between 250-300 g, were anesthetized (90 mg/Kg Ketamine HCL and 10 mg/Kg Xylazine) and the entire dorsal region of each rat was shaved. […] The epithelial thickness of the three sections of the wound (margin, center and midpoint between these two) was measured by morphometric analysis of the microscopic image using Image-Pro Plus software, Version 3.0 (Media Cybernetics). The average thickness of these sites within the wound was determined for wound healing of the entire site.

human blood = experiment: Lee and White Coagulation Assay in Human Blood; settings: samples in dried form (5 mg/ml), triplicate
Experimental: For the purposes of this application, and as a preliminary matter, a series of hemostatic agents were evaluated in order to determine a relative comparison of the effectiveness of such compounds on human blood. Each of the compounds were evaluated in the comparison against the standard control (human blood) and the negative control heparin, which is an anti-coagulant. […] Lee and White Coagulation Assay in Human Blood [table]

Compound	improvement in re-epithelialization over the gauze control ([1]; day 5)	re-epithelialization compared with the Comfeel control ([1]; over 15 days)	re-epithelialization compared with the gauze control ([1]; over 15 days)	BLOOD CLOTTING TIME (MIN) (human blood)
NC(=O)c1cccnc1.O=C1O[C@H]([C@@H](O)CO)C(O)=C1O [NA, Niacinamide ascorbate]	> 50%	larger growth rates (re-epithelialization rates)	larger numbers for re-epithelialization than the control	–
Heparin	–	–	–	NC (NC = No Clot for 60 min)
